Source: the supplement of paper PMC11451515

Tested on: NOMO1
Test: cell viability relative to DMSO control; higher = less cytotoxic
Conditions: 48 h
Summary of the method: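 Before seeding, each leukemia line was adapted for at least four passages in each medium. NOMO1 or SEM cells (500 cells/well) and P12-Ichikawa cells (1000 cells/well) went into 1536-well plates at 5 μl, then received library compounds in DMSO by pin dosing across 11 threefold concentrations, 47 μM to 0.79 nM. Readout was CellTiter-Glo One luminescence after 48 h at 37°C, and viability is given as a per-plate percentage of DMSO wells, with cell-free wells as background.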

[1] = HPLM + 10% dialyzed FBS, 0.000781 µM
[2] = HPLM + 10% dialyzed FBS, 0.00234 µM
[3] = HPLM + 10% dialyzed FBS, 0.00702 µM
[4] = HPLM + 10% dialyzed FBS, 0.0211 µM
[5] = HPLM + 10% dialyzed FBS, 0.0632 µM
[6] = HPLM + 10% dialyzed FBS, 0.19 µM
[7] = HPLM + 10% dialyzed FBS, 0.569 µM
[8] = HPLM + 10% dialyzed FBS, 1.71 µM
[9] = HPLM + 10% dialyzed FBS, 5.12 µM
[10] = HPLM + 10% dialyzed FBS, 15.4 µM
[11] = HPLM + 10% dialyzed FBS, 46.1 µM
[12] = RPMI 5 mM glucose + 10% FBS, 0.000781 µM
[13] = RPMI 5 mM glucose + 10% FBS, 0.00234 µM
[14] = RPMI 5 mM glucose + 10% FBS, 0.00702 µM
[15] = RPMI 5 mM glucose + 10% FBS, 0.0211 µM
[16] = RPMI 5 mM glucose + 10% FBS, 0.0632 µM
[17] = RPMI 5 mM glucose + 10% FBS, 0.19 µM
[18] = RPMI 5 mM glucose + 10% FBS, 0.569 µM
[19] = RPMI 5 mM glucose + 10% FBS, 1.71 µM
[20] = RPMI 5 mM glucose + 10% FBS, 5.12 µM
[21] = RPMI 5 mM glucose + 10% FBS, 15.4 µM
[22] = RPMI 5 mM glucose + 10% FBS, 46.1 µM
[23] = RPMI 5 mM glucose + 10% dialyzed FBS, 0.000781 µM
[24] = RPMI 5 mM glucose + 10% dialyzed FBS, 0.00234 µM
[25] = RPMI 5 mM glucose + 10% dialyzed FBS, 0.00702 µM
[26] = RPMI 5 mM glucose + 10% dialyzed FBS, 0.0211 µM
[27] = RPMI 5 mM glucose + 10% dialyzed FBS, 0.0632 µM
[28] = RPMI 5 mM glucose + 10% dialyzed FBS, 0.19 µM
[29] = RPMI 5 mM glucose + 10% dialyzed FBS, 0.569 µM
[30] = RPMI 5 mM glucose + 10% dialyzed FBS, 1.71 µM
[31] = RPMI 5 mM glucose + 10% dialyzed FBS, 5.12 µM
[32] = RPMI 5 mM glucose + 10% dialyzed FBS, 15.4 µM
[33] = RPMI 5 mM glucose + 10% dialyzed FBS, 46.1 µM

| Structure (SMILES) | cell viability [1] | cell viability [2] | cell viability [3] | cell viability [4] | cell viability [5] | cell viability [6] | cell viability [7] | cell viability [8] | cell viability [9] | cell viability [10] | cell viability [11] | cell viability [12] | cell viability [13] | cell viability [14] | cell viability [15] | cell viability [16] | cell viability [17] | cell viability [18] | cell viability [19] | cell viability [20] | cell viability [21] | cell viability [22] | cell viability [23] | cell viability [24] | cell viability [25] | cell viability [26] | cell viability [27] | cell viability [28] | cell viability [29] | cell viability [30] | cell viability [31] | cell viability [32] | cell viability [33] |
| --- | --- | --- | --- | --- | --- | --- | --- | --- | --- | --- | --- | --- | --- | --- | --- | --- | --- | --- | --- | --- | --- | --- | --- | --- | --- | --- | --- | --- | --- | --- | --- | --- | --- |
| CCN1CCN(c2ccc(Nc3cc(N(C)C(=O)Nc4c(Cl)c(OC)cc(OC)c4Cl)ncn3)cc2)CC1 | 103% | 120% | 124% | 124% | 102% | 117% | 98.8% | 90.9% | 41.7% | 25.9% | 11.6% | 119% | 131% | 114% | 118% | 110% | 118% | 121% | 111% | 63.3% | 34.3% | 15.9% | 103% | 106% | 119% | 116% | 130% | 103% | 111% | 108% | 68.8% | 32.7% | 14.9% |
| Cc1onc(-c2ccccc2Cl)c1C(=O)N[C@@H]1C(=O)N2[C@@H]1SC(C)(C)[C@@H]2C(=O)[O-] | 104% | 104% | 123% | 116% | 98.9% | 103% | 105% | 113% | 92.8% | 105% | 84.7% | 112% | 119% | 134% | 110% | 104% | 115% | 115% | 107% | 99.5% | 97.9% | 94.3% | 117% | 124% | 123% | 103% | 111% | 103% | 102% | 108% | 110% | 84.1% | 96.3% |
| C[S+](=O)([O-])Nc1ccc([N+](=O)[O-])cc1Oc1ccccc1 | 121% | 127% | 118% | 96.4% | 121% | 116% | 122% | 107% | 103% | 101% | 70.8% | 109% | 98.4% | 104% | 110% | 108% | 93.5% | 104% | 96.7% | 101% | 98.1% | 60.6% | 103% | 116% | 96% | 112% | 101% | 112% | 98.2% | 106% | 110% | 112% | 47.1% |
| C[C@H]1C[C@@H]2[C@H](CC[C@@]3(C)[C@H]2CC[C@]3(OC(C)=O)C(C)=O)[C@@]\4(C)CCC(=O)\C=C14 | 95.2% | 112% | 116% | 112% | 119% | 110% | 125% | 123% | 120% | 81.3% | 118% | 103% | 103% | 103% | 101% | 99.5% | 107% | 128% | 117% | 101% | 95.9% | 103% | 86.7% | 98.7% | 109% | 88.5% | 101% | 98.8% | 104% | 98% | 103% | 88.7% | 112% |
| CC(C)(C)OC(=O)N[C@H]1CCCCC/C=C\[C@@H]2C[C@@]2(C(=O)N[S+](=O)([O-])C2CC2)NC(=O)[C@@H]2C[C@@H](OC(=O)N3Cc4cccc(F)c4C3)CN2C1=O | 125% | 115% | 124% | 114% | 108% | 121% | 103% | 120% | 114% | 111% | 111% | 96.8% | 93.3% | 97.2% | 100% | 114% | 106% | 113% | 99.9% | 94% | 101% | 102% | 97.4% | 92.7% | 111% | 98.5% | 110% | 100% | 123% | 109% | 104% | 90.1% | 103% |
| Cc1ccccc1C(=O)c1ccc(Nc2ccc(Br)cc2N)cc1Cl | – | – | – | – | – | – | – | – | – | – | – | 107% | 123% | 116% | 122% | 120% | 113% | 110% | 121% | 116% | 103% | 90.1% | 131% | 116% | 112% | 120% | 118% | 126% | 107% | 121% | 114% | 93.7% | 71.5% |
| CNCC(O)c1ccc(O)cc1 (centres undefined) | 114% | 106% | 116% | 103% | 116% | 125% | 129% | 109% | 128% | 113% | 134% | 96.7% | 104% | 118% | 116% | 112% | 103% | 125% | 118% | 127% | 120% | 121% | 106% | 122% | 109% | 119% | 104% | 118% | 108% | 113% | 125% | 130% | 120% |
| CN1CCN(C2=Nc3cc(Cl)ccc3Nc3ccccc32)CC1 | 103% | 100% | 110% | 111% | 116% | 119% | 113% | 132% | 112% | 106% | 59.3% | 98.6% | 94.3% | 102% | 98.4% | 107% | 101% | 103% | 96.3% | 106% | 106% | 102% | 87.5% | 99.6% | 99.7% | 90.1% | 115% | 106% | 110% | 99.3% | 103% | 97.9% | 78.4% |
| O=C(O)Cn1nnc(-c2cc(N3CCC(Oc4cc(F)ccc4Br)CC3)no2)n1 | 96% | 97.7% | 97.2% | 111% | 108% | 99.6% | 106% | 34.7% | 29.9% | 24.4% | 24.6% | 102% | 105% | 106% | 109% | 109% | 106% | 104% | 22.9% | 22.1% | 16% | 16.6% | 83.1% | 109% | 100% | 104% | 115% | 113% | 112% | 45.2% | 31.9% | 25.4% | 22.8% |
| O=C1c2ccccc2-[n+]2ccc3c([nH]c4ccccc43)c21 | 106% | 114% | 125% | 93.1% | 103% | 120% | 104% | 99.6% | 62% | 2.96% | 2.32% | 98% | 115% | 104% | 110% | 112% | 103% | 112% | 108% | 87% | 3.28% | 2.18% | 91.3% | 116% | 107% | 97.1% | 98.5% | 126% | 101% | 102% | 66.4% | 3.34% | 2% |
